In one data set the target is T1, hAPJ (Homo sapiens, UniProt P35414).
T1 sequence (P35414 1-380): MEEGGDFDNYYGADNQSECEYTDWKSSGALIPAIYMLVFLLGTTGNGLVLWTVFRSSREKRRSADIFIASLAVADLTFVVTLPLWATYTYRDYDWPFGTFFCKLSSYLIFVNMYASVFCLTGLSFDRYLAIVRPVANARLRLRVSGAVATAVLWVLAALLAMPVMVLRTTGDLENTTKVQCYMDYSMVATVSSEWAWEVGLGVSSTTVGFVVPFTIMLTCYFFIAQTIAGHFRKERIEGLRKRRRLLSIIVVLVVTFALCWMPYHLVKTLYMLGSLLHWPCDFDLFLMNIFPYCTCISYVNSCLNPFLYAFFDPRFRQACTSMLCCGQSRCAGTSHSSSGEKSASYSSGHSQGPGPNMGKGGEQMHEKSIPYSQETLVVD
The experiment in a line: hAPJ Calcium Flux Assay. In kind it is cell-based. Particulars: Chem-5 APJ stable cells, calcium flux stimulation; read-out: hAPJ Ca2+ Flux EC50. As to the method: Chem-5 APJ stable cells (Millipore # HTS068C) were plated in 384-well format with 10,000 cells/well in 25 ul growth media, then grown 24 hours in a 37° C. tissue culture incubator. One hour before the assay, 25 ul/well FLIPR Calcium 4 dye (Molecular Devices R8142) with 2.5 mM probenecid was added, and cells were incubated one hour in a 37° C. tissue culture incubator. Peptides were solubilized in HBSS, HEPES & 0.1% BSA buffer, and serially-diluted 10-fold, from 50 uM to 5 pM, in triplicate. FLIPR Tetra was used to add peptide to the cells with dye (1:5, for final peptide concentrations ranging from 10 uM to 1 pM). FLIPR dye inside the cells emitted fluorescence after binding to calcium, while fluorescence from outside the cells was masked. […] Readings were done for 3 minutes total, beginning 10 seconds before the peptide addition. Maximum-minimum values were calculated and plotted for each peptide concentration, and GraphPad prism software was used to calculate EC50 values at the curve inflection points, for calcium flux stimulation by peptides.

Data set [1] can be described thus: Surrogate Activity-Based Plasma Stability Assay. In kind it is in vitro ADME. The note with it: rat. From the text:
Surrogate Activity-Based Plasma Stability Assay:
2) Calculate slope of value above and […]

Like-named read-outs stand apart in the source and are kept apart here. Where a SMILES comes first, the peptide text is derived from it. Bridges are numbered along the chain shown (N, C = ends). [ ]: non-standard residue; d: D form. pGlu = O=C1CC[C@@H](C(=O)O)N1; d(hCys) = N[C@H](CCS)C(=O)O; dNle = CCCC[C@@H](N)C(=O)O; dNva = CCC[C@@H](N)C(=O)O; hCys = N[C@@H](CCS)C(=O)O; Nle = CCCC[C@H](N)C(=O)O; dAbu = CC[C@@H](N)C(=O)O

In the case of `CCCC[C@H](NC(=O)[C@@H]1CCCN1C(=O)CNC(=O)[C@H](CCCCN)NC(=O)[C@@H]1CCSSC[C@H](NC(C)=O)C(=O)N[C@@H](CCCNC(=N)N)C(=O)N2CCC[C@H]2C(=O)N[C@@H](CCCNC(=N)N)C(=O)N[C@@H](CC(C)C)C(=O)N[C@@H](CO)C(=O)N1)C(=O)N1CCC[C@H]1C(=O)N[C@@H](Cc1ccccc1)C(=O)O` [Example 6, Ac-C*-R-P-R-L-S-hC*-K-G-P-Nle-P-F-OH] (Ac-CRPRLS[hCys]KGP[Nle]PF-OH; disulfide 1-7), the EC50 at hAPJ stood at 21.4 nM. This compound had a half-life in data set [1] of 5 min.

Turning to `CCCC[C@H](NC(=O)[C@@H]1CCCN1C(=O)CNC(=O)[C@H](CCCCN)NC(=O)[C@@H]1CSSC[C@@H](NC(C)=O)C(=O)N[C@@H](CCCNC(=N)N)C(=O)N2CCC[C@H]2C(=O)N[C@@H](CCCNC(=N)N)C(=O)N[C@@H](CC(C)C)C(=O)N[C@@H](CO)C(=O)N1)C(=O)N1CCC[C@H]1C(=O)N[C@@H](Cc1ccccc1)C(=O)O` [Example 12, Ac-c*-R-P-R-L-S-C*-K-G-P-Nle-P-F-OH] (Ac-[dC]RPRLSCKGP[Nle]PF-OH; disulfide 1-7), on hAPJ, the EC50 turned out to be 21.4 nM. In data set [1], this compound came in with a half-life of 10 min.

On to `CCCC[C@H](NC(=O)[C@@H]1CCCN1C(=O)CNC(=O)[C@H](CCCCN)NC(=O)[C@H]1CSSC[C@H](NC(C)=O)C(=O)N[C@@H](CCCNC(=N)N)C(=O)N2CCC[C@H]2C(=O)N[C@@H](CCCNC(=N)N)C(=O)N[C@@H](CC(C)C)C(=O)N[C@@H](CO)C(=O)N1)C(=O)N1CCC[C@H]1C(=O)N[C@@H](Cc1ccccc1)C(=O)O` [Example 15, Ac-C*-R-P-R-L-S-c*-K-G-P-Nle-P-F-OH] (Ac-CRPRLS[dC]KGP[Nle]PF-OH; disulfide 1-7), for which, at hAPJ, the EC50 stood at 193 nM. The compound further displayed a half-life in data set [1] of 17.7 min.

Consider `CCCC[C@@H](NC(=O)[C@@H]1CCCN1C(=O)[C@@H](C)NC(=O)[C@H](CCCCN)NC(=O)[C@@H]1CSSC[C@H](NC(=O)[C@H](CCCNC(=N)N)NC(=O)[C@@H]2CCC(=O)N2)C(=O)N[C@@H](CCCNC(=N)N)C(=O)N[C@@H](CC(C)C)C(=O)N[C@@H](CO)C(=O)N1)C(=O)N[C@H](C)C(=O)N[C@H](Cc1ccccc1)C(=O)O` [Example 23, pE-R-C*-R-L-S-C*-K-a-P-(D-Nle)-a-f-OH] ([pGlu]RCRLSCK[dA]P[dNle][dA][dF]-OH; disulfide 3-7), for which the half-life in data set [1] was 3160 min.

In data set [1], `CCCC[C@@H](NC(=O)[C@@H]1CCCN1C(=O)[C@H](C)NC(=O)[C@H](CCCCN)NC(=O)[C@@H]1CSSC[C@H](NC(=O)[C@H](CCCNC(=N)N)NC(=O)[C@@H]2CCC(=O)N2)C(=O)N[C@@H](CCCNC(=N)N)C(=O)N[C@@H](CC(C)C)C(=O)N[C@@H](CO)C(=O)N1)C(=O)N[C@H](C)C(=O)N[C@H](Cc1ccccc1)C(=O)O` [Example 24, pE-R-C*-R-L-S-C*-K-A-P-(D-Nle)-a-f-OH] ([pGlu]RCRLSCKAP[dNle][dA][dF]-OH; disulfide 3-7) registered a half-life of 1700 min.

For `CCCC[C@@H](NC(=O)[C@@H]1CCCN1C(=O)CNC(=O)[C@H](CCCCN)NC(=O)[C@@H]1CSSC[C@H](NC(=O)[C@H](CCCNC(=N)N)NC(=O)[C@@H]2CCC(=O)N2)C(=O)N[C@@H](CCCNC(=N)N)C(=O)N[C@@H](CC(C)C)C(=O)N[C@@H](CO)C(=O)N1)C(N)=O` [Example 25, pE-R-C*-R-L-S-C*-K-G-P-(D-Nle)-NH2] ([pGlu]RCRLSCKGP[dNle]-NH2; disulfide 3-7), in data set [1], the half-life is greater than 1000 min.

As for `CC(C)C[C@@H]1NC(=O)[C@H](CCCNC(=N)N)NC(=O)[C@@H](NC(=O)[C@H](CCCNC(=N)N)NC(=O)[C@@H]2CCC(=O)N2)CSSCC[C@H](C(=O)N[C@@H](CCCCN)C(=O)NCC(=O)N2CCC[C@H]2C(=O)N[C@H](Cc2ccccc2)C(=O)N[C@H](C)C(=O)N[C@H](Cc2ccccc2)C(=O)O)NC(=O)[C@H](CO)NC1=O` [Example 26, pE-R-C*-R-L-S-(D-hC)*-K-G-P-f-a-f-OH] ([pGlu]RCRLS[d(hCys)]KGP[dF][dA][dF]-OH; disulfide 3-7), the half-life in data set [1] is 52 min.

Consider `CCCC[C@@H](NC(=O)[C@@H]1CCCN1C(=O)CNC(=O)[C@H](CCCCN)NC(=O)[C@@H]1CSSC[C@@H](NC(=O)[C@H](CCCNC(=N)N)NC(=O)[C@@H]2CCC(=O)N2)C(=O)N[C@@H](CCCNC(=N)N)C(=O)N[C@@H](CC(C)C)C(=O)N[C@@H](CO)C(=O)N1)C(=O)N[C@H](CC)C(=O)N[C@H](Cc1ccccc1)C(=O)O` [Example 27, pE-R-c*-R-L-S-C*-K-G-P-(D-Nle)-(D-abu)-f-OH] ([pGlu]R[dC]RLSCKGP[dNle][dAbu][dF]-OH; disulfide 3-7), for which, in data set [1], the half-life was found to be 82 min.

Regarding `CCCC[C@H](NC(=O)[C@@H]1CCCN1C(=O)CNC(=O)[C@H](CCCCN)NC(=O)[C@@H]1CSSC[C@H](NC(=O)[C@@H]2CCCN2C(=O)[C@H](CCCNC(=N)N)NC(=O)[C@@H]2CCC(=O)N2)C(=O)N[C@@H](CC(C)C)C(=O)N[C@@H](CO)C(=O)N1)C(=O)N1CCC[C@H]1C(=O)N[C@@H](Cc1ccccc1)C(=O)O` [Example 28, pE-R-P-C*-L-S-C*-K-G-P-Nle-P-F-OH] ([pGlu]RPCLSCKGP[Nle]PF-OH; disulfide 4-7), the half-life in data set [1] is 13 min.

As to `CCCC[C@H](NC(=O)[C@@H]1CCCN1C(=O)CNC(=O)[C@H](CCCCN)NC(=O)[C@@H]1CSSC[C@H](NC(=O)[C@@H]2CCCN2C(=O)[C@H](CCCNC(=N)N)NC(=O)[C@@H]2CCC(=O)N2)C(=O)N[C@@H](CC(C)C)C(=O)N[C@@H](CO)C(=O)N1)C(=O)N1CCC[C@H]1C(=O)NCCc1ccccc1` [Example 30, pE-R-P-C*-L-S-C*-K-G-P-Nle-P-NH(Phenethyl)], in data set [1], the half-life amounted to 661 min.

As to `CCCC[C@H](NC(=O)[C@@H]1CCCN1C(=O)CNC(=O)[C@H](CCCCN)NC(=O)[C@@H]1CSSC[C@H](NC(=O)[C@@H]2CCCN2C(=O)[C@H](CCCNC(=N)N)NC(=O)[C@@H]2CCC(=O)N2)C(=O)N[C@@H](CC(C)C)C(=O)N[C@@H](CO)C(=O)N1)C(=O)NCCc1ccccc1` [Example 31, pE-R-P-C*-L-S-C*-K-G-P-Nle-NH(Phenethyl)], the half-life in data set [1] came to 43.1 min.

For the compound `CCCC[C@@H](NC(=O)[C@@H]1CCCN1C(=O)CNC(=O)[C@H](CCCCN)NC(=O)[C@@H]1CSSC[C@H](NC(=O)[C@@H]2CCCN2C(=O)[C@H](CCCNC(=N)N)NC(=O)[C@@H]2CCC(=O)N2)C(=O)N[C@@H](CC(C)C)C(=O)N[C@@H](CO)C(=O)N1)C(=O)N[C@H](C)C(=O)N[C@H](Cc1ccccc1)C(=O)O` [Example 33, pE-R-P-C*-L-S-C*-K-G-P-(D-Nle)-a-f-OH] ([pGlu]RPCLSCKGP[dNle][dA][dF]-OH; disulfide 4-7), the half-life in data set [1] is greater than 1000 min.

`CCCC[C@@H](NC(=O)[C@@H]1CCCN1C(=O)CNC(=O)[C@H](CCCCN)NC(=O)[C@@H]1CSSC[C@H](NC(=O)[C@@H]2CCCN2C(=O)[C@H](CCCNC(=N)N)NC(=O)[C@@H]2CCC(=O)N2)C(=O)N[C@@H](CC(C)C)C(=O)N[C@@H](CO)C(=O)N1)C(=O)N[C@H](Cc1ccccc1)C(=O)O` [Example 34, pE-R-P-C*-L-S-C*-K-G-P-(D-Nle)-f-OH] ([pGlu]RPCLSCKGP[dNle][dF]-OH; disulfide 4-7): the half-life in data set [1] is greater than 1000 min.

In turn, `CCCC[C@@H](NC(=O)[C@@H]1CCCN1C(=O)CNC(=O)[C@H](CCCCN)NC(=O)[C@H]1CCSSC[C@@H](NC(=O)[C@@H]2CCCN2C(=O)[C@H](CCCNC(=N)N)NC(=O)[C@@H]2CCC(=O)N2)C(=O)N[C@@H](CC(C)C)C(=O)N[C@@H](CO)C(=O)N1)C(=O)N[C@H](C)C(=O)N[C@H](Cc1ccc(O)cc1)C(=O)O` [Example 37, pE-R-P-c*-L-S-(D-hC)*-K-G-P-(D-Nle)-a-y-OH] ([pGlu]RP[dC]LS[d(hCys)]KGP[dNle][dA][dY]-OH; disulfide 4-7) showed a half-life in data set [1] of 47 min.

With `CCCC[C@@H](NC(=O)[C@@H]1CCCN1C(=O)CNC(=O)[C@H](CCCCN)NC(=O)[C@@H]1CCSSCC[C@@H](NC(=O)[C@@H]2CCCN2C(=O)[C@H](CCCNC(=N)N)NC(=O)[C@@H]2CCC(=O)N2)C(=O)N[C@@H](CC(C)C)C(=O)N[C@@H](CO)C(=O)N1)C(=O)N[C@H](CCC)C(=O)N[C@H](Cc1ccccc1)C(=O)O` [Example 38, pE-R-P-(D-hC)*-L-S-hC*-K-G-P-(D-Nle)-(D-Nva)-f-OH] ([pGlu]RP[d(hCys)]LS[hCys]KGP[dNle][dNva][dF]-OH; disulfide 4-7), the half-life in data set [1] is 41 min.

`C=CCCCCCCCCCC(CCCCCCCCCCC(=O)O)(C(=O)O)C(=O)NCCOCCOCCOCCOCCOCCOCCOCCOCCOCCOCCOCCOCCOCCOCCOCCOCCOCCOCCOCCOCCOCCOCCOCCn1nnc2c1CC[C@H]1[C@@H](CC2)[C@H]1COC(=O)NCCCC[C@H](NC(=O)[C@@H]1CSSC[C@H](NC(=O)[C@@H]2CCCN2C(=O)[C@H](CCCNC(=N)N)NC(=O)[C@@H]2CCC(=O)N2)C(=O)N[C@@H](CC(C)C)C(=O)N[C@@H](CO)C(=O)N1)C(=O)NCC(=O)N1CCC[C@H]1C(=O)N[C@H](CCCC)C(=O)NCCc1ccccc1` (stereo partly shown) [Example 40]: in data set [1] (read-out: Surrogate activity-based Plasma stability t½), the half-life was greater than 1000 min.
